Where two headings read alike, the source gives them in different places. Ends that are not written are not given here. Peptide text beside a SMILES is read from it.
Key:
[1] = system: Mixed planktonic populations of P. aeruginosa, E. coli, S. epidermidis, and S. mutans; test: Microbial population shift assay; assay type: cell-based; settings: mixed culture, 10 μM peptide, 24 h, detection limit 200 cfu/mL, FIG. 18
Method: Peptide (10 μM) or mock-treatment (1×PBS) was then added and samples were incubated at 37° C. for 24 h under anaerobic conditions (80% N2, 15% CO2, 5% H2). […] Plates were then incubated 37° C. under aerobic conditions (TH plates were incubated anaerobically) and colonies counted after 24 h to determine survivors. […] Gram stains and direct microscopic observation (from select isolated colonies) were undertaken to confirm species identity (data not shown). The detection limit of the assay was 200 cfu/mL.
We hypothesized that potential MH-STAMP dual-functionality could affect a particular set of bacteria within a mixed population, thereby promoting the outgrowth of non-targeted organisms and “shifting” the constituent makeup. To examine this possibility, defined mixed populations of planktonic cells were treated continuously and the make-up of the community examined after 24 h.

S. mutans [2] = test: Post-antibiotic effect assay, S. mutans; assay type: cell-based, Streptococcus mutans; settings: S. mutans monoculture; peptide 10 min, then fresh medium; FIG. 17A
Method: (§1) The activity and selectivity of MH-STAMPs after a 10 min incubation was determined by growth retardation experiments against targeted and untargeted bacteria in monocultures, as described previously (Id.). Cells from overnight cultures were diluted to ˜5×10^6 cfu/mL in MH (or TH with 1% sucrose for S. mutans), normalized by OD600 0.05-0.1 and seeded to 96-well plates. Cultures were then grown under the appropriate conditions for 2 h (3 h for S. mutans) prior to the addition of peptides for 10 min. Plates were then centrifuged at 3000×g for 5 min, the supernatants discarded, fresh medium returned (MH or TH without sucrose for S. mutans), and incubation resumed. Bacterial growth after treatment was then monitored over time by OD600.
(§2) MH-STAMP antimicrobial kinetics was ascertained utilizing a variation of the classical post-antibiotic effect assay, which measures the ability of an agent to affect an organism's growth after a short exposure period. Monocultures of MH-STAMP-targeted and untargeted organisms were exposed to M8(KH)-20, M8(BL)-20, BL(KH)-20, or unmodified BD2.20, then allowed to recover. […] Furthermore, replacement of the targeting region with a non-binding peptide abolishes specific activity.

S. epidermidis [3] = test: Post-antibiotic effect assay, S. epidermidis; assay type: cell-based, Staphylococcus epidermidis; settings: S. epidermidis monoculture; peptide 10 min, then fresh medium; FIG. 17C
Method: as §1, §2

P. aeruginosa [4] = test: Post-antibiotic effect assay, P. aeruginosa; assay type: cell-based, Pseudomonas aeruginosa; settings: P. aeruginosa monoculture; peptide 10 min, then fresh medium; FIG. 17B
Method: as §1, §2

S. aureus = test: Post-antibiotic effect assay, S. aureus; assay type: cell-based, Staphylococcus aureus; settings: S. aureus monoculture; peptide 10 min, then fresh medium; FIG. 17D
Method: as §1, §2

E. coli [5] = test: Post-antibiotic effect assay, E. coli; assay type: cell-based, Escherichia coli; settings: E. coli monoculture; peptide 10 min, then fresh medium; FIG. 17E
Method: as §1, §2

MRSA = test: MIC test / antimicrobial activity, MRSA; assay type: cell-based, Methicillin-resistant Staphylococcus aureus
Method: (§3) The active AMPs, STAMPs and the like can be identified and/or validated using an in vitro screening assay.
(§4) It will be appreciated that other assays as are well known in the art or that will become apparent to those having skill in the art upon review of this disclosure may also be used to identify active AMPs. Such assays include, for example, the assay described in Lehrer et al. (1988) J. Immunol.
(§5) Peptides were evaluated for basic antimicrobial activity by broth microdilution, as described previously (Eckert et al. (2006) Antimicrob Agents Chemother., 50: 3651-3657; Eckert et al. (2006) Antimicrob Agents Chemother., 50: 1480-1488). Briefly, ˜1×10^5 cfu/mL bacteria were diluted in TH (S. mutans), or Mueller-Hinton (MH) broth (all other organisms) and distributed to 96-well plates. Serially-diluted (2-fold) peptides were then added and the plates incubated at 37° C. for 18-24 h. […] All experiments were conducted 10 times.

S. mutans [6] = test: MIC test (broth microdilution) / antimicrobial activity, S. mutans; assay type: cell-based, Streptococcus mutans
Method: as §3, §4, §5

S. pneumoniae = test: MIC test / antimicrobial activity, S. pneumoniae; assay type: cell-based, Streptococcus pneumoniae
Method: as §3, §4, §5

microorganisms [7] = test: Peptide activities: targeting/binding, antimicrobial, growth or phenotype altering (Tables 7, 8); assay type: cell-based; settings: peptides having multiple activities
E. coli [8] = test: MIC test (broth microdilution) / antimicrobial activity, E. coli; assay type: cell-based, Escherichia coli
Method: as §3, §4, §5

microorganisms [9] = test: Morphology, biofilm and growth disrupting peptides (Table 5); assay type: cell-based; set-up: key: A: Peptide aggregates; B: Less hyphal formation; Clumps; Diffuse clumps and small polyps; F: Diffuse growth; H: Thin; I: Growth inhibition; Microcolony formation; Rippled; Small polyps; Thick; W: Halo formation on top, microlonies on bottom
From the text: In certain embodiments peptides that induce alterations in phenotype or other biological activities can also be used as antimicrobial effector moieties.

S. epidermidis [10] = test: MIC test (broth microdilution) / antimicrobial activity, S. epidermidis; assay type: cell-based, Staphylococcus epidermidis
Method: as §3, §4, §5

T. rubrum = test: MIC test / antimicrobial activity, T. rubrum; assay type: cell-based, Trichophyton rubrum
Method: as §3, §4, §5

C. jeikeium = test: MIC test / antimicrobial activity, C. jeikeium; assay type: cell-based, Corynebacterium jeikeium
Method: as §3, §4, §5

A. niger = test: MIC test / antimicrobial activity, A. niger; assay type: cell-based, Aspergillus niger
Method: as §3, §4, §5

B. subtilis = test: MIC test / antimicrobial activity, B. subtilis; assay type: cell-based, Bacillus subtilis
Method: as §3, §4, §5

P. aeruginosa [11] = test: MIC test (broth microdilution) / antimicrobial activity, P. aeruginosa; assay type: cell-based, Pseudomonas aeruginosa
Method: as §3, §4, §5

C. difficile = test: MIC test / antimicrobial activity, C. difficile; assay type: cell-based, Clostridium difficile
Method: as §3, §4, §5

A. baumannii = test: MIC test / antimicrobial activity, A. baumannii; assay type: cell-based, Acinetobacter baumannii
Method: as §3, §4, §5

| Compound | Organism MIC (μM) (MRSA) | Organism MIC (μM) (S. mutans [6]) | Organism MIC (μM) (S. pneumoniae) | Activities (microorganisms [7]) | Organism MIC (μM) (E. coli [8]) | Organism, effect (microorganisms [9]; C. albicans) | Organism, effect (microorganisms [9]; MRSA) | Organism, effect (microorganisms [9]; S. epidermidis) | Organism, effect (microorganisms [9]; S. mutans) | Organism, effect (microorganisms [9]; S. pneumoniae) | Organism MIC (μM) (S. epidermidis [10]; S. epidermidis) | Organism MIC (μM) (T. rubrum) | Organism, effect (microorganisms [9]; M. luteus) | Organism, effect (microorganisms [9]; P. aeruginosa) | Organism MIC (μM) (C. jeikeium) | Organism MIC (μM) (A. niger) | Organism, effect (microorganisms [9]; E. coli) | other results |
| --- | --- | --- | --- | --- | --- | --- | --- | --- | --- | --- | --- | --- | --- | --- | --- | --- | --- | --- |
| CC[C@H](C)[C@H](NC(=O)[C@@H](N)Cc1ccccc1)C(=O)N[C@@H](CCCNC(=N)N)C(=O)N[C@@H](CCCCN)C(=O)N[C@@H](Cc1ccccc1)C(=O)N[C@@H](CC(C)C)C(=O)N[C@@H](CCCCN)C(=O)N[C@@H](CCCCN)C(=O)N[C@@H](Cc1c[nH]c2ccccc12)C(=O)N[C@@H](CC(C)C)C(=O)N[C@@H](CC(C)C)C(N)=O [BD2.20] (H-FIRKFLKKWLL-NH2; N-terminus assumed) |  |  |  |  |  |  |  |  |  |  |  |  |  |  |  |  |  | surviving P. aeruginosa ([1]; input ~0.5×10^4 cfu/mL): significant loss of recoverable cfu/mL; surviving E. coli ([1]; input ~2×10^4 cfu/mL): significant loss of recoverable cfu/mL; surviving S. epidermidis ([1]; input ~2×10^4 cfu/mL): significant loss of recoverable cfu/mL; surviving S. mutans ([1]; input ~6×10^4 cfu/mL): significant loss of recoverable cfu/mL; growth after treatment (culture recovery, OD600) (S. mutans [2]): robust antimicrobial activity; growth after treatment (culture recovery, OD600) (S. epidermidis [3]): inhibited; growth after treatment (culture recovery, OD600) (P. aeruginosa [4]): robust antimicrobial activity; growth after treatment (culture recovery, OD600) (S. aureus): inhibited; growth after treatment (culture recovery, OD600) (E. coli [5]): inhibited |
| FESKILNASKELDKEKKVNTALSFNSHQDFAKAYQNGKI [PF-606] | MRSA, 50 μM | S. mutans, 50 μM | S. pneumoniae, 50 μM | G M | E. coli, 50 μM | C. albicans (B) | MRSA (I) | S. epidermidis (I) | S. mutans (I) | S. pneumoniae (H) | S. epidermidis, 50 μM |  |  |  |  |  |  |  |
| GSVIKKRRKRMAKKKHRKLLKKTRIQRRRAGK [PF-527] | MRSA, 50 μM |  |  | G B M |  | C. albicans (B) | MRSA (I) | S. epidermidis (M) |  | S. pneumoniae (H) |  | T. rubrum, 25 μM | M. luteus (S) | P. aeruginosa (I) | C. jeikeium, 6.25 μM | A. niger, 50 μM |  | Organism, effect (microorganisms [9]; B. subtilis): B. subtilis (I); Organism, effect (microorganisms [9]; C. jeikeium): C. jeikeium (I); Organism, effect (microorganisms [9]; C. jejuni): C. jejuni (M); Organism MIC (μM) (S. epidermidis [10]): S. epidermidis, 25 μM; Organism MIC (μM) (B. subtilis): B. subtilis, 12.5 μM; Organism MIC (μM) (P. aeruginosa [11]): P. aeruginosa, 50 μM |
| TKKIELKRFVDAFVKKSYENYILERELKKLIKAINEELPTK [PF-600] |  |  | S. pneumoniae, 50 μM | G B M | E. coli, 50 μM |  | MRSA (M) | S. epidermidis (C) | S. mutans (S) | S. pneumoniae (R) |  |  | M. luteus (C) |  |  |  | E. coli (H) |  |
| YIQFHLNQQPRPKVKKIKIFL-NH2 [PF-531] |  | S. mutans, 12.5 μM |  | G M |  |  |  | S. epidermidis (I) |  | S. pneumoniae (C) | S. epidermidis, 50 μM | T. rubrum, 50 μM |  | P. aeruginosa (I) | C. jeikeium, 6.25 μM | A. niger, 25 μM | E. coli (M) | Organism MIC (μM) (C. difficile): C. difficile, 12.5 μM; Organism MIC (μM) (A. baumannii): A. baumannii, 25 μM; Organism MIC (μM) (B. subtilis; B. subtilis): B. subtilis, 25 μM; Organism MIC (μM) (P. aeruginosa [11]; P. aeruginosa): P. aeruginosa, 50 μM |

— patent publication US20110039763A1, “TARGETED ANTIMICROBIAL MOIETIES” (C3 JIAN, INC., priority 2009, published 2011)
